Data set [1] in a line: short-term stability study (1 week, 60° C. and 40° C./75% RH). It is filed as physicochemical. Conditions: for TRS %: sesqui-maleate salt. Here is the method: Weighed about 2 mg (For XRPD: 10 mg) of each of the above salts in a 40 mL glass vial, separately. The free base form was used as control. The closed samples were capped and sealed with parafilm, while the opened samples were covered by aluminum foil with pinhole. All the samples were stored in stability chamber or dry oven at the corresponding conditions (60° C. and 40° C./75% RH) for 1 week.

The subject of data set [2] is human Calu-6 lung adenocarcinoma (K-RAS mutation) tumors. The data set can be described thus: xenograft efficacy study, combination. The class given is in vivo, BALB/C nude mice. Particulars: Calu-6 tumors. Here is the method: Human cancer cells were inoculated subcutaneously in the right axilla region of BALB/C nude mice to generate tumor xenografts. On the day of implantation, the cell culture medium was replaced with fresh medium. Three hours later, the media was removed and the cells were collected and re-suspended in cold (4° C.) PBS prior to inoculation. The right axilla region of each mouse was cleaned with 70% ethanol prior to cell inoculation. Each animal was injected subcutaneously with desired cells in 200 μl of cell suspension in the right front flank via a 26-gauge needle. After implantation tumor volumes were measured twice weekly in two dimensions using a calliper. Tumor volume was calculated using the formula: V=0.5×(a×b^2) where a and b are the long and short diameters of the tumor, respectively.
For in vivo efficacy studies, when the average tumor size reaches 100˜200 mm^3, animals were assigned into desired number of groups with 6-10 mice per group using a stratified randomization procedure. […] Body weight was assessed immediately before dosing and the volume dosed was adjusted accordingly. Individual body weights and tumor volumes were determined twice weekly, with mice being monitored daily for clinical signs of toxicity for the duration of the study. […] All group data was analyzed using the t test. […]
Tumor growth inhibition (TGI) was calculated using the following formula: […]

The nature of data set [3]: Raf kinase enzymatic assay (HTRF). On the technique in general: Time-resolved FRET reads energy transfer from a long-lived donor to a nearby acceptor.
The test system of the next data set is HT-29 cells. The data set can be described thus: CellTiter-Glo luminescent cell viability assay. The class given is cell-based. Conditions: Homo sapiens, 72 h; HT-29, BRAF V600E, 3-day exposure, N=2; read-out: Compound 1 EC50 (mean ± SD). Here is the method:
(§1) A375, Sk-Mel-28, HT29, Colo205, A431, and HCC827 cell lines were purchased from American Type Culture Collection. All the cell lines used in the cellular assays were cultured in the designated medium supplemented with 10% fetal bovine serum (FBS, Thermo Scientific), 100 units/mL penicillin (Gibco), 0.1 mg/mL streptomycin (Gibco) and in a humidified 37° C. environment with 5% CO2. Cell lines were reinstated from frozen stocks laid down within three passages from the original cells purchased and passaged no more than 30 times.
(§2) The growth-inhibitory activity of compounds in a panel of melanoma, colon, breast and lung cancer cells was determined using CellTiter-Glo luminescent cell viability assay (Promega). The number of cells seeded per well of a 96-well plate was optimized for each cell line to ensure logarithmic growth over the 3 days treatment period. Cells were left to attach for 16 hours and then treated with a 10-point dilution series in duplicate. Following a 3-day exposure to the compound, a volume of CellTiter-Glo reagent equal to the volume of cell culture medium present in each well was added. Mixture was placed on an orbital shaker for 2 minutes to allow cell lysing, followed by 10 minutes incubation at room temperature to allow development and stabilization of luminescent signal. Luminescent signal was measured using PHERAstar FS reader (BMG Labtech). EC50 values for cell viability were determined with GraphPad Prism software.

Another data set has as its system Sk-Mel-28 cells. The data set can be described thus: CellTiter-Glo luminescent cell viability assay. The class given is cell-based. Conditions: Homo sapiens, 72 h; Sk-Mel-28, BRAF V600E, 3-day exposure, N=2; read-out: Compound 1 EC50 (mean ± SD). Here is the method: as §1, §2
In general terms: In ATP-based viability assays light output follows the ATP content of the culture.

A further data set has as its system A375 cells. The data set can be described thus: CellTiter-Glo luminescent cell viability assay. It is filed as cell-based. Particulars: Homo sapiens, A-375, 72 h; A375, BRAF V600E, 3-day exposure, N=2; read-out: Compound 1 EC50 (mean ± SD). Here is the method: as §1, §2
In another data set the test system is Colo-205 cells. The data set can be described thus: CellTiter-Glo luminescent cell viability assay. It is filed as cell-based. Particulars: Homo sapiens, 72 h; Colo-205, BRAF V600E, 3-day exposure, N=2; read-out: Compound 1 EC50 (mean ± SD). Here is the method: as §1, §2
In data set [4] the test system is ERK phosphorylation in HT29 cells. The data set can be described thus: cellular phospho-ERK TR-FRET assay. The class given is cell-based. Particulars: Homo sapiens, HT-29; B-RAF V600E mutant HT29 colorectal cancer cells, 1 h treatment. Here is the method: as §1
(§3) Cellular phospho-ERK and phospho-EGFR were measured using a TR-FRET-based method. Cells were seeded at 3×10^4 per well of a 96-well plate and left to attach for 16 hours. Growth medium was then replaced with 100 μL of medium containing no serum. Cells were then treated with a 10-point titration of compound. After 1 h of compound treatment, 50 μL of lysis buffer (Cisbio) were added to each well. Plates were then incubated at room temperature with shaking for 30 min. A total of 16 μL of cell lysate from each well of a 96-well plate was transferred to a 384-well small volume white plate. Lysate from each well was incubated with 2 μL of Eu3+- or Tb3+-cryptate (donor) labeled anti-ERK or anti-EGFR antibody (Cisbio) and 2 μL of D2 (acceptor) labeled anti-phospho-ERK or anti-phospho-EGFR antibody (Cisbio) for 2 h at room temperature. FRET signals were measured using a PHERAstar FS reader (BMG Labtech). IC50 values for ERK or EGFR phosphorylation was determined using GraphPad Prism software.

Data set [5] concerns ERK phosphorylation in Sk-Mel-28 cells. The data set can be described thus: cellular phospho-ERK TR-FRET assay. It is filed as cell-based. Particulars: Homo sapiens; B-RAF V600E mutant melanoma Sk-Mel-28 cells, 1 h treatment. Here is the method: as §1, §3
The test system of data set [6] is ERK phosphorylation in Colo205 cells. The data set can be described thus: cellular phospho-ERK TR-FRET assay. Conditions: Homo sapiens, COLO 205; B-RAF V600E mutant Colo205 colorectal cancer cells, 1 h treatment. It is filed as cell-based. Here is the method:
as §1, §3

Data set [7] deals with ERK phosphorylation in A375 cells. The data set can be described thus: cellular phospho-ERK TR-FRET assay. It is filed as cell-based. Particulars: Homo sapiens, A-375; B-RAF V600E mutant melanoma A375 cells, 1 h treatment. Here is the method:
as §1, §3

A further data set relates to drug metabolism enzymes. The data set can be described thus: inhibition of drug metabolism enzymes. Particulars: except CYP2C8 and CYP2C19. It is filed as in vitro ADME.

Counter-ions that a name gives are not always drawn.

The term IC50 denotes the concentration that inhibits the measured activity by half. As usually defined, the EC50 is the concentration at which the effect is half-maximal. Regarding `O=C1CCc2c(Oc3ccc4c(c3)[C@@H]3[C@H](O4)[C@H]3c3nc4ccc(C(F)(F)F)cc4[nH]3)ccnc2N1` [5-(((1R,1aS,6bR)-1-(6-(trifluoromethyl)-1H-benzo[d]imidazol-2-yl)-1a,6b-dihydro-1H-cyclopropa[b]benzofuran-5-yl)oxy)-3,4-dihydro-1,8-naphthyridin-2(1H)-one sesqui-maleate salt], the TRS % was found to be 0.08% in [1] (0 day); 0.10% in data set [1] (40° C./75% RH, 1 week); 0.17% in data set [1] (60° C., 1 week). The “chemical degradation” value in data set [1] (after one week at 60° C. and 40° C./75% RH) is listed as “did not show degradations”. For the same molecule, the “appearance by visual observation” value in data set [1] (both conditions after 1 week) is “no change”. Also, the “antitumor activity in combination” value in data set [2] (combined with docetaxel) and in data set [2] (combined with the MEK inhibitor selumetinib (AZD6244)) was “remarkable antitumor activity” in each case. Besides, the IC50 in data set [3] (BRAF V600E (416-766), ATP at KM) was determined as 26 nM; in data set [4], 103 nM; in [5] it was 77 nM; in [6], 53 nM; in data set [7] it was 32 nM. Moreover, the “enzyme inhibition” value in data set [3] (V600E mutant B-RAF) was “potent and reversible inhibitor”. For the same molecule, the EC50 is 138 ± 13 nM in the data set with HT-29 cells, 251 ± 54 nM with Sk-Mel-28 cells, 137 ± 0.5 nM in the data set with A375 cells and 147 ± 0.6 nM in the data set with Colo-205 cells. Besides, the “inhibitory activity on drug metabolism enzymes” value with drug metabolism enzymes was “no inhibitory activity”.

These data come from patent US10351559B2, “Maleate salts of a B-RAF kinase inhibitor, crystalline forms, methods of preparation, and uses therefore” (BeiGene, Ltd., priority 2015, dated 2019).
